According to PubChem BioAssay AID248 (DTP/NCI, 2004):
Inconclusive results and toxic doses are left out. No stated cut-off is given here; in the data, active means T/C of 150% or more; inactive means T/C below 125%.

Tested on: L1210 leukemia ip in BDF1 mice, survival T/C
Assay: NCI In Vivo Anticancer Drug Screen. Data for tumor model L1210 Leukemia (intraperitoneal) in B6D2F1 (BDF1) mice
Details: endpoint: mean survival time, higher = longer survival
How it was run: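 Antitumor effect is assessed in tumor-bearing animals. Survival in the compound arm is compared with a vehicle-dosed control arm and expressed as their quotient.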

[1] = dose: 100.0 mg/kg/injection, schedule: Q04DX003 (ip), vehicle: saline with Tween-80
[2] = dose: 200.0 mg/kg/injection, schedule: Q04DX003 (ip), vehicle: saline with Tween-80
[3] = dose: 400.0 mg/kg/injection, schedule: Q04DX003 (ip), vehicle: saline with Tween-80
[4] = dose: 100.0 mg/kg/injection, schedule: Q01DX009 (ip), vehicle: Klucel (hydroxypropylcellulose) (HPC)
[5] = dose: 100.0 mg/kg/injection, schedule: Q04DX003 (ip), vehicle: Klucel (hydroxypropylcellulose) (HPC)
[6] = dose: 200.0 mg/kg/injection, schedule: Q01DX009 (ip), vehicle: Klucel (hydroxypropylcellulose) (HPC)
[7] = dose: 200.0 mg/kg/injection, schedule: Q04DX003 (ip), vehicle: Klucel (hydroxypropylcellulose) (HPC)
[8] = dose: 400.0 mg/kg/injection, schedule: Q01DX009 (ip), vehicle: Klucel (hydroxypropylcellulose) (HPC)
[9] = dose: 400.0 mg/kg/injection, schedule: Q04DX003 (ip), vehicle: Klucel (hydroxypropylcellulose) (HPC)
[10] = dose: 100.0 mg/kg/injection, schedule: Q01DX001 (ip), vehicle: carboxymethylcellulose (CMC)
[11] = dose: 200.0 mg/kg/injection, schedule: Q01DX001 (ip), vehicle: carboxymethylcellulose (CMC)
[12] = dose: 400.0 mg/kg/injection, schedule: Q01DX001 (ip), vehicle: carboxymethylcellulose (CMC)
[13] = dose: 50.0 mg/kg/injection, schedule: Q01DX001 (ip), vehicle: saline
[14] = dose: 100.0 mg/kg/injection, schedule: Q01DX001 (ip), vehicle: saline
[15] = dose: 200.0 mg/kg/injection, schedule: Q01DX001 (ip), vehicle: saline
[16] = dose: 400.0 mg/kg/injection, schedule: Q01DX001 (ip), vehicle: saline
[17] = dose: 222.0 mg/kg/injection, schedule: Q01DX Z (ip), vehicle: methylcellulose (MC)
[18] = dose: 333.0 mg/kg/injection, schedule: Q01DX Z (ip), vehicle: methylcellulose (MC)
[19] = dose: 500.0 mg/kg/injection, schedule: Q01DX Z (ip), vehicle: methylcellulose (MC)

Measured: T/C

O=[As]O
inactive: dose: 0.5 mg/kg/injection, schedule: Q01DX015 (ip), vehicle: carboxymethylcellulose (CMC) 97 % of control | dose: 1.0 mg/kg/injection, schedule: Q01DX015 (ip), vehicle: carboxymethylcellulose (CMC) 93 % of control | dose: 1.53 mg/kg/injection, schedule: Q01DX Z (ip), vehicle: carboxymethylcellulose (CMC) 110 % of control | dose: 2.0 mg/kg/injection, schedule: Q01DX015 (ip), vehicle: carboxymethylcellulose (CMC) 97 % of control | dose: 3.15 mg/kg/injection, schedule: Q01DX Z (ip), vehicle: carboxymethylcellulose (CMC) 98 % of control | dose: 4.0 mg/kg/injection, schedule: Q01DX015 (ip), vehicle: carboxymethylcellulose (CMC) 97 % of control | dose: 5.0 mg/kg/injection, schedule: Q01DX015 (ip), vehicle: carboxymethylcellulose (CMC) 88 % of control | dose: 6.3 mg/kg/injection, schedule: Q01DX Z (ip), vehicle: carboxymethylcellulose (CMC) 104 % of control | dose: 10.0 mg/kg/injection, schedule: Q01DX015 (ip), vehicle: carboxymethylcellulose (CMC) 87 % of control | dose: 12.6 mg/kg/injection, schedule: Q01DX Z (ip), vehicle: carboxymethylcellulose (CMC) 104 % of control

CC(C)(C)NC(=O)CCC(CC(=O)NC(C)(C)C)C1([N+](=O)[O-])CCCCC1 (configuration not stated)
inactive: [1] 92 % of control | [2] 91 % of control | [3] 86 % of control

Cc1c([N+](=O)[O-])cc(C(C)(C)C)c(OC(=O)C(Cl)(Cl)Cl)c1[N+](=O)[O-]
inactive: dose: 100.0 mg/kg/injection, schedule: Q04DX002 (ip), vehicle: Klucel (hydroxypropylcellulose) (HPC) 95 % of control | dose: 200.0 mg/kg/injection, schedule: Q04DX002 (ip), vehicle: Klucel (hydroxypropylcellulose) (HPC) 91 % of control

COc1ccc(OC)c(NC(=O)Nc2c(C)n(C)n(-c3ccccc3)c2=O)c1
inactive: [4] 93 % of control | [5] 98 % of control | [6] 93 % of control | [7] 93 % of control | [8] 101 % of control | [9] 90 % of control

Nc1ccc(-c2ccc(Nc3cc(S(=O)(=O)O)c(N)c4c3C(=O)c3ccccc3C4=O)cc2)c(S(=O)(=O)O)c1
inactive: dose: 10.0 mg/kg/injection, schedule: Q01DX001 (ip), vehicle: acetone 96 % of control | dose: 20.0 mg/kg/injection, schedule: Q01DX001 (ip), vehicle: acetone 89 % of control | dose: 40.0 mg/kg/injection, schedule: Q01DX001 (ip), vehicle: acetone 100 % of control

CCOC(=O)c1c[n]([Hg][n]2cc(C(=O)OCC)c(Nc3ccccc3Cl)nc2=O)c(=O)nc1Nc1ccccc1Cl
inactive: dose: 3.0 mg/kg/injection, schedule: Q01DX009 (ip), vehicle: saline with Tween-80 96 % of control | dose: 6.0 mg/kg/injection, schedule: Q01DX009 (ip), vehicle: saline with Tween-80 96 % of control | dose: 12.0 mg/kg/injection, schedule: Q01DX009 (ip), vehicle: saline with Tween-80 95 % of control | dose: 12.5 mg/kg/injection, schedule: Q04DX003 (ip), vehicle: saline with Tween-80 100 % of control

C[N+](C)(C)CCCN1c2ccccc2S(=O)c2ccc(Cl)cc21 (configuration not stated)
inactive: [10] 100 % of control | [11] 103 % of control | [12] 103 % of control

O=[N+]([O-])c1ccc(N/N=C\c2c(Cl)c(Cl)c(/C=N/Nc3ccc([N+](=O)[O-])cc3)c(Cl)c2Cl)cc1
inactive: [13] 91 % of control | [14] 91 % of control | [15] 94 % of control | [16] 94 % of control

CCOC(=O)CN1C(C)C1C(C)C (configuration not stated)
inactive: [5] 114 % of control | [7] 100 % of control | [9] 104 % of control

CCCCC(CC)C(=O)N1CCOCC1 (configuration not stated)
inactive: [1] 120 % of control | [2] 114 % of control | [3] 107 % of control

O=c1c2ccccc2nc(-c2ccccc2)n1/N=C/c1ccco1
inactive: [4] 93 % of control | [6] 94 % of control | [8] 96 % of control

O=C(NCc1ccco1)Nc1ccc([N+](=O)[O-])cc1
inactive: [17] 101 % of control | [18] 94 % of control | [19] 96 % of control

[Cl][Fe]([Cl])([Cl])[Cl].c1ccc(-c2cc(-c3ccccc3)[o+]c(-c3ccccc3)c2)cc1
inactive: dose: 25.0 mg/kg/injection, schedule: Q01DX009 (ip), vehicle: saline with Tween-80 87 % of control | dose: 50.0 mg/kg/injection, schedule: Q01DX009 (ip), vehicle: saline with Tween-80 88 % of control | dose: 100.0 mg/kg/injection, schedule: Q01DX009 (ip), vehicle: saline with Tween-80 90 % of control

c1ccc([C@H]2CN3CCSC3=N2)cc1
inactive: dose: 0.15 mg/kg/injection, schedule: Q01DX009 (ip), vehicle: saline 94 % of control | dose: 0.31 mg/kg/injection, schedule: Q01DX009 (ip), vehicle: saline 91 % of control | dose: 0.63 mg/kg/injection, schedule: Q01DX009 (ip), vehicle: saline 105 % of control | dose: 1.25 mg/kg/injection, schedule: Q01DX009 (ip), vehicle: saline 96 % of control | dose: 2.5 mg/kg/injection, schedule: Q01DX009 (ip), vehicle: saline 98 % of control | dose: 5.0 mg/kg/injection, schedule: Q01DX009 (ip), vehicle: saline 109 % of control | dose: 10.0 mg/kg/injection, schedule: Q01DX009 (ip), vehicle: saline 93 % of control | dose: 20.0 mg/kg/injection, schedule: Q01DX009 (ip), vehicle: saline 94 % of control

O=S(=O)(Cc1ccccc1)Cc1ccccc1
inactive: [13] 101 % of control | [14] 95 % of control | [1] 96 % of control | [15] 95 % of control | [2] 100 % of control | [16] 91 % of control | [3] 100 % of control

C[N+](C)(C)c1ccc(NC(=O)c2ccc(C(=O)Nc3ccc([N+](C)(C)C)cc3)cc2)cc1
inactive: dose: 0.5 mg/kg/injection, schedule: Q01DX Z (ip), vehicle: saline 93 % of control | dose: 1.0 mg/kg/injection, schedule: Q01DX Z (ip), vehicle: saline 102 % of control | dose: 2.0 mg/kg/injection, schedule: Q01DX Z (ip), vehicle: saline 97 % of control

C#CCOC(=O)Nc1cccc(Cl)c1
inactive: [4] 95 % of control | [5] 97 % of control | [6] 97 % of control | [7] 106 % of control | [8] 95 % of control | [9] 90 % of control

COc1cc2c(cc1OC)C(CCCCCCCC1NCCc3cc(OC)c(OC)cc31)NCC2 (configuration not stated)
inactive: dose: 0.25 mg/kg/injection, schedule: Q01DX015 (ip), vehicle: saline 97 % of control | dose: 0.5 mg/kg/injection, schedule: Q01DX015 (ip), vehicle: saline 100 % of control | dose: 1.0 mg/kg/injection, schedule: Q01DX015 (ip), vehicle: saline 103 % of control | dose: 2.0 mg/kg/injection, schedule: Q01DX015 (ip), vehicle: saline 102 % of control | dose: 4.0 mg/kg/injection, schedule: Q01DX015 (ip), vehicle: saline 106 % of control | dose: 8.0 mg/kg/injection, schedule: Q01DX015 (ip), vehicle: carboxymethylcellulose (CMC) 91 % of control | dose: 16.0 mg/kg/injection, schedule: Q01DX015 (ip), vehicle: carboxymethylcellulose (CMC) 91 % of control | [13] 101 % of control | [14] 100 % of control

Cc1ccc(C(=O)CCCc2ccccn2)cc1
inactive: [17] 98 % of control | [18] 100 % of control | [19] 87 % of control

Cc1c(C(=O)O)c(C(=O)O)c(C)n1-c1ccccc1C(=O)O (tested in a mixture with another compound)
inactive: dose: 100.0 mg/kg/injection, schedule: Q04DX003 (ip), vehicle: saline 106 % of control | dose: 200.0 mg/kg/injection, schedule: Q04DX003 (ip), vehicle: saline 101 % of control

Cn1c2c(c(=O)[nH]c1=O)OCN(Cc1ccccc1)C2
inactive: dose: 50.0 mg/kg/injection, schedule: Q01DX001 (ip), vehicle: carboxymethylcellulose (CMC) 91 % of control | [10] 100 % of control | [11] 94 % of control | [12] 100 % of control
